Assay results reported in PubChem BioAssay (NCI).
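1) Cells in 96-well plates. 2) Compound, 48 h, 5 concentrations. 3) Linear interpolation between surrounding doses. 4) Unreached endpoint = highest concentration. Here, GI50 denotes the concentration required for 50% inhibition of growth. The concentration for full growth arrest is given as TGI.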

Experiments:
Experiment in all cases: NCI tumour cell line growth inhibition, 48 h
COLO 205 colon = tested on: COLO 205 colon
U251 CNS = tested on: U251 CNS
UACC-257 melanoma = tested on: UACC-257 melanoma
SK-OV-3 ovarian = tested on: SK-OV-3 ovarian
SNB-19 CNS = tested on: SNB-19 CNS
HT29 colon = tested on: HT29 colon
LOX IMVI melanoma = tested on: LOX IMVI melanoma
NCI-H522 lung = tested on: NCI-H522 lung
A498 renal = tested on: A498 renal
RXF 393 renal = tested on: RXF 393 renal

| Structure (SMILES) | TGI (COLO 205 colon) | TGI (U251 CNS) | TGI (UACC-257 melanoma) | TGI (SK-OV-3 ovarian) | TGI (SNB-19 CNS) | TGI (HT29 colon) | TGI (LOX IMVI melanoma) | TGI (NCI-H522 lung) | TGI (A498 renal) | GI50 (COLO 205 colon) | GI50 (RXF 393 renal) | TGI (RXF 393 renal) | GI50 (U251 CNS) | GI50 (UACC-257 melanoma) | GI50 (SK-OV-3 ovarian) | GI50 (SNB-19 CNS) | GI50 (HT29 colon) | GI50 (LOX IMVI melanoma) | GI50 (NCI-H522 lung) | GI50 (A498 renal) |
| --- | --- | --- | --- | --- | --- | --- | --- | --- | --- | --- | --- | --- | --- | --- | --- | --- | --- | --- | --- | --- |
| COc1cc(-c2oc3c(OC)c(O)c(OC)c(O)c3c(=O)c2OC)ccc1O | > 100 µM | > 100 µM | > 100 µM | 54.6 µM | > 100 µM | > 100 µM | > 100 µM | 66.9 µM | > 100 µM | – | – | – | – | – | – | – | – | – | – | – |
| C=CC(=O)Nc1cccc(C)c1Nc1ncc2cc(-c3c(Cl)c(OC)cc(OC)c3Cl)ccc2n1 | 36.7 µM | 16.5 µM | 68.3 µM | 82.6 µM | 47.1 µM | 67.7 µM | 14.1 µM | 26.9 µM | – | 4.17 µM | 1.3 µM | 4.59 µM | 2.3 µM | 3.43 µM | 18.3 µM | 4.14 µM | 6.31 µM | 2.33 µM | 10.2 µM | – |
| CC(=O)c1c[nH]cc1CO | > 10 µM | > 10 µM | – | > 10 µM | > 10 µM | – | > 10 µM | – | > 10 µM | – | – | > 10 µM | – | – | – | – | – | – | – | – |
| COc1cc(C(=O)CC2(O)C(=O)Nc3c(Cl)cc(Cl)cc32)ccc1O (centres undefined) | 83.5 µM | > 100 µM | > 100 µM | > 100 µM | > 100 µM | > 100 µM | > 100 µM | > 100 µM | – | – | – | > 100 µM | – | – | – | – | – | – | – | – |
| N=C(N)c1ccc(-c2ccc(-c3cccs3)s2)nc1 | 1.09 µM | 3.35 µM | 3.5 µM | 5.88 µM | 20.8 µM | 3.83 µM | – | 3.44 µM | 0.74 µM | 0.248 µM | 1.56 µM | 3.54 µM | 1.66 µM | 1.74 µM | 1.56 µM | 3.48 µM | 1.6 µM | – | 1.61 µM | 0.165 µM |
| CN(C)c1ccc(O)c2c1C[C@H]1C[C@H]3[C@H](N(C)C)C(=O)C(C(N)=O)=C(O)[C@@]3(O)C(=O)C1=C2O | 20.5 µM | 57.1 µM | > 100 µM | > 100 µM | > 100 µM | > 100 µM | 31.9 µM | – | 10.5 µM | 5.51 µM | 4.01 µM | 69.7 µM | 4.5 µM | 8.99 µM | 3.92 µM | 5.93 µM | 10.2 µM | 3.64 µM | – | 1.49 µM |
| Cc1ccc(S(=O)(=O)c2c3[nH]c4ccccc4nc3n3c2nc2ccccc23)cc1 | > 100 µM | > 100 µM | > 100 µM | > 100 µM | > 100 µM | – | > 100 µM | > 100 µM | > 100 µM | – | – | – | – | – | – | – | – | – | – | – |
| CSC1C(=O)c2ccccc2/C(=N/Nc2nc3ccccc3s2)C1C (centres undefined) | 21.1 µM | 15.6 µM | 18.9 µM | > 50 µM | > 50 µM | – | 11.6 µM | 26.3 µM | – | 9.63 µM | – | – | 7.66 µM | 8.87 µM | 35.2 µM | 19.9 µM | – | 5.62 µM | 6.95 µM | – |
| Cn1c(=O)c(C(=O)NC(=O)OCc2ccccc2)cn(CCSCCOC(=O)NCCCCCCNC(=O)OCCSCCn2cc(C(=O)NC(=O)OCc3ccccc3)c(=O)n(C)c2=O)c1=O | > 100 µM | > 100 µM | – | – | > 100 µM | – | > 100 µM | > 100 µM | > 100 µM | – | – | > 100 µM | – | – | – | – | – | – | – | – |
| O=C(N/C(=C\c1ccc(Oc2ccc(Cl)c(Cl)c2)cc1)c1nc2ccccc2[nH]1)c1ccccc1 | 58 µM | 27.4 µM | – | 79.2 µM | 36.3 µM | 32.6 µM | – | 35.5 µM | – | – | – | 28.1 µM | – | – | – | – | – | – | – | – |
| Cc1ccc(N2C(=O)/C(=C/c3ccc(N(CCC#N)CCC#N)cc3C)N=C2c2cc([N+](=O)[O-])ccc2Cl)cc1 | > 100 µM | > 100 µM | > 100 µM | > 100 µM | > 100 µM | > 100 µM | – | > 100 µM | > 100 µM | – | – | – | – | – | – | – | – | – | – | – |
| Cc1cccc2c1C/C(=C1\CCc3c(C)cccc31)C2=O | > 100 µM | > 100 µM | > 100 µM | > 100 µM | > 100 µM | > 100 µM | > 100 µM | – | > 100 µM | – | – | > 100 µM | – | – | – | – | – | – | – | – |
| Clc1ccc2c(c1)-c1ccccc1C1=NCCN12 | 3.54 µM | 7.14 µM | 3.3 µM | 8.64 µM | 9.32 µM | 3.6 µM | 3.65 µM | 3.48 µM | – | 1.61 µM | 1.51 µM | 2.98 µM | 1.98 µM | 1.54 µM | 2.68 µM | 2.5 µM | 1.17 µM | 1.59 µM | 1.52 µM | – |
| CC1=Nn2c(nnc2-c2ccc(N)cc2)NC(C)(C)C1 | > 100 µM | > 100 µM | > 100 µM | > 100 µM | > 100 µM | > 100 µM | > 100 µM | > 100 µM | > 100 µM | – | – | – | – | – | – | – | – | – | – | – |
| COc1cccc2c(=O)c3c(sc12)c(NCCN(C)C)nc1ccccc13 | 2.86 µM | 2.74 µM | 3.5 µM | – | – | 2.12 µM | 2.76 µM | 3.02 µM | 2.93 µM | 1.2 µM | 1.29 µM | 2.65 µM | 1.29 µM | 1.72 µM | – | – | 0.648 µM | 1.33 µM | 1.36 µM | 1.49 µM |
| NC(CCSC(F)F)C(=O)O (centres undefined) | > 100 µM | > 100 µM | – | > 100 µM | > 100 µM | > 100 µM | > 100 µM | > 100 µM | – | – | – | > 100 µM | – | – | – | – | – | – | – | – |
| Cc1cccc2c1C(=O)OC2(C)c1cccc2ccccc12 (centres undefined) | – | 73.8 µM | > 100 µM | – | > 100 µM | > 100 µM | > 100 µM | 40.4 µM | – | – | – | 84.6 µM | – | – | – | – | – | – | – | – |
| O=C(/C=C1/NC(=O)CS1)Nc1ccccc1 | > 100 µM | > 100 µM | – | > 100 µM | > 100 µM | > 100 µM | – | > 100 µM | > 100 µM | – | – | > 100 µM | – | – | – | – | – | – | – | – |
| O=C1c2c(nc3ccccc3c2-c2ccccc2)CN1Nc1ccccc1 | > 100 µM | – | > 100 µM | > 100 µM | – | > 100 µM | > 100 µM | > 100 µM | – | – | – | – | – | – | – | – | – | – | – | – |
